Measured values taken from patent publication US8541588B2, “Sulfonamide derivatives” (Pfizer Limited, priority 2009, dated 2013).

Target: T1, Nav1.7 (or SCN9A) channel; HEK cells stably transfected with hSCN9A (Homo sapiens, UniProt Q15858)
T1 construct: expressed in transfected cells
Test: Nav1.7 block, PatchXpress 7000 automated whole-cell voltage clamp, estimated IC50 (EIC50)
Type: cell-based
Settings: estimated IC50, PatchXpress platform

[1] = hSCN9A HEK cells, Examples 283-814
[2] = hSCN9A HEK cells, Examples 815-1040
[3] = hSCN9A HEK cells held at V1/2 of inactivation

T1 sequence (Q15858 whole entry): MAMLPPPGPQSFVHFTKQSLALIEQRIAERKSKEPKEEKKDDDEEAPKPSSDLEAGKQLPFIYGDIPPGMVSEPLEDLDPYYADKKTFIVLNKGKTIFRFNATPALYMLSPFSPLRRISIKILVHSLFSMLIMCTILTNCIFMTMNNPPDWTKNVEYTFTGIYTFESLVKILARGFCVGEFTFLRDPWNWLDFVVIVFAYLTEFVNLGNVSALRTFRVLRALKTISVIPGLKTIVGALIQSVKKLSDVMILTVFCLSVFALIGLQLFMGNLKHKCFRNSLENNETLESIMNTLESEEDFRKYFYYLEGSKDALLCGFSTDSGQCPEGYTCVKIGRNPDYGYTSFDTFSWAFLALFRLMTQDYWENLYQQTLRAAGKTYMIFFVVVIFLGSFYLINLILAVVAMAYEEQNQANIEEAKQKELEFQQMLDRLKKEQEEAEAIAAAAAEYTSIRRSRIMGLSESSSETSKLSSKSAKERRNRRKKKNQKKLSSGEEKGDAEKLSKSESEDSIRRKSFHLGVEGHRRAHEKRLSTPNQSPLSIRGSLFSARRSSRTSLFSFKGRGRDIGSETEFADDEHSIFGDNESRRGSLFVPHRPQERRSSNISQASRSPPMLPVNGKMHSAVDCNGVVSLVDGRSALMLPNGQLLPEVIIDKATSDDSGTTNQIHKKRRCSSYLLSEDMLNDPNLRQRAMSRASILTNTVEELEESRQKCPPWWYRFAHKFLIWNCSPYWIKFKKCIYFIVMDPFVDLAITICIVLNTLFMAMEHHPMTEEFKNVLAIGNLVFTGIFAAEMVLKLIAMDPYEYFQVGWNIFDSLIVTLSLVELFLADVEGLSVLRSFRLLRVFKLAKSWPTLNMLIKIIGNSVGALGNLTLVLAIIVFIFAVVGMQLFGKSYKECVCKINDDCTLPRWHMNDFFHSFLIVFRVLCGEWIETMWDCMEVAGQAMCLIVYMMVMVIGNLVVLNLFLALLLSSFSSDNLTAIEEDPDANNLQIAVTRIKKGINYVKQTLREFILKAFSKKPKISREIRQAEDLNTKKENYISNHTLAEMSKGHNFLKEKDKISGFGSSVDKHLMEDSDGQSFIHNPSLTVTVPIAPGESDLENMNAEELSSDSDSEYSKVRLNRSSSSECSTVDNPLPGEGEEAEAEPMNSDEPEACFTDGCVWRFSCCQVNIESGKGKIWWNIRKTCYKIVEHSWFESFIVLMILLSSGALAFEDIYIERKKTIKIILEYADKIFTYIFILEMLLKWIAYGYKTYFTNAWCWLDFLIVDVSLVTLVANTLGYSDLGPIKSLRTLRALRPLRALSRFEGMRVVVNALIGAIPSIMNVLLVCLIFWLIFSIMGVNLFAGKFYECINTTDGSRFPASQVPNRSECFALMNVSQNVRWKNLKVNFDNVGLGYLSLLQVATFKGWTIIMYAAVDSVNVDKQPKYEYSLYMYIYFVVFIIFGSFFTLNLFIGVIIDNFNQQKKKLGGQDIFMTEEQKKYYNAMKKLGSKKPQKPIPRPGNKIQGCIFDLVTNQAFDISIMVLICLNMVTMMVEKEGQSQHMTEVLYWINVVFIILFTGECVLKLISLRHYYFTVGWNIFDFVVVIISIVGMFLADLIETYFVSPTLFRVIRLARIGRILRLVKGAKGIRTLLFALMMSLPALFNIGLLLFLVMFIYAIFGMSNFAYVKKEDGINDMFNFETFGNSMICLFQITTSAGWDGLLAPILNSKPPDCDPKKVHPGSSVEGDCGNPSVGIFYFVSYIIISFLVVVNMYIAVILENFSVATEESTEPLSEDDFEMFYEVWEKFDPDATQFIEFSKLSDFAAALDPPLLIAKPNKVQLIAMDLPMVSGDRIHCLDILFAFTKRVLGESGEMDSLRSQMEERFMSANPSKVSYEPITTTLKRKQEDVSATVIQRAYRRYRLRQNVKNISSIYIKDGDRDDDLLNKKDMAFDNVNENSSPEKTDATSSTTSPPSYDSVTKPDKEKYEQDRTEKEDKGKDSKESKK

IC50 [1] [nM] | Compound | other results
11 | Cn1nccc1-c1ccc(I)cc1Oc1ccc(S(=O)(=O)Nc2ncns2)cc1C#N [Example 507, 3-cyano-4-[5-iodo-2-(1-methyl-1H-pyrazol-5-yl)phenoxy]-N-1,2,4-thiadiazol-5-ylbenzenesulfonamide] | 
480 | Cn1nccc1-c1cc(F)ccc1Oc1cc(F)c(S(=O)(=O)Nc2csnn2)cc1Cl [Example 364, 5-chloro-2-fluoro-4-(4-fluoro-2-(1-methyl-1H-pyrazol-5-yl)phenoxy)-N-(1,2,3-thiadiazol-4-yl)benzenesulfonamide] | 
 | Cc1nccnc1-c1cc(Cl)ccc1Oc1ccc(S(=O)(=O)Nc2ncns2)cc1C#N [Example 1010, 4-[4-chloro-2-(3-methylpyrazin-2-yl)phenoxy]-3-cyano-N-1,2,4-thiadiazol-5-ylbenzenesulfonamide] | IC50 [2]: 820 nM
780 | N#Cc1cc(S(=O)(=O)Nc2ncc(F)s2)ccc1Oc1ccc(Cl)c(Cn2ccnn2)c1 [Example 533, 4-[4-chloro-3-(1H-1,2,3-triazol-1-ylmethyl)phenoxy]-3-cyano-N-(5-fluoro-1,3-thiazol-2-yl)benzenesulfonamide] | 
 | N#Cc1cc(S(=O)(=O)Nc2ncns2)ccc1Oc1ccccc1-c1cc(F)cc(F)c1 [Example 53, 3-cyano-4-[(3′,5′-difluorobiphenyl-2-yl)oxy]-N-1,2,4-thiadiazol-5-ylbenzenesulfonamide] | IC50 [3]: 3540 nM
>3000 | N#Cc1cc(S(=O)(=O)Nc2ccc(F)cn2)ccc1Oc1ccc(-c2cocn2)cc1 [Example 581, 3-cyano-N-(5-fluoropyridin-2-yl)-4-[4-(1,3-oxazol-4-yl)phenoxy]benzenesulfonamide] | 
3.6 | Nc1n[nH]cc1-c1cc(Cl)ccc1Oc1cc(F)c(S(=O)(=O)Nc2ncns2)cc1F [Example 742, 4-[2-(3-amino-1H-pyrazol-4-yl)-4-chlorophenoxy]-2,5-difluoro-N-1,2,4-thiadiazol-5-ylbenzenesulfonamide] | 
2500 | O=S(=O)(Nc1cscn1)c1ccc(Oc2ccc(Cl)cc2-c2cn[nH]c2)cc1 [Example 672, 4-[4-chloro-2-(1H-pyrazol-4-yl)phenoxy]-N-1,3-thiazol-4-ylbenzenesulfonamide] | 
77 | O=S(=O)(Nc1cscn1)c1cc(Cl)c(Oc2ccc(Cl)cc2-c2cn[nH]c2)cc1F [Example 661, 5-chloro-4-[4-chloro-2-(1H-pyrazol-4-yl)phenoxy]-2-fluoro-N-1,3-thiazol-4-ylbenzenesulfonamide] | 
1900 | N#Cc1cc(S(=O)(=O)Nc2nccs2)ccc1Oc1ccc(-c2ncccc2Cl)cc1 [Example 456, 4-[4-(3-chloropyridin-2-yl)phenoxy]-3-cyano-N-1,3-thiazol-2-ylbenzenesulfonamide] | 
3400 | Cn1nccc1-c1ccc(Oc2ccc(S(=O)(=O)Nc3ncc(F)s3)cc2C#N)c(C#N)c1 [Example 538, 3-cyano-4-[2-cyano-4-(1-methyl-1H-pyrazol-5-yl)phenoxy]-N-(5-fluoro-1,3-thiazol-2-yl)benzenesulfonamide] | 
50 | N#Cc1cc(S(=O)(=O)Nc2nccs2)ccc1Oc1ccc(-c2cc(C(F)(F)F)nn2CCO)cc1 [Example 382, 3-cyano-4-{4-[1-(2-hydroxyethyl)-3-(trifluoromethyl)-1H-pyrazol-5-yl]phenoxy}-N-1,3-thiazol-2-ylbenzenesulfonamide] | 
33 | Cc1n[nH]cc1-c1cc(Cl)ccc1Oc1cc(F)c(S(=O)(=O)Nc2cscn2)cc1Cl [Example 662, 5-chloro-4-[4-chloro-2-(3-methyl-1H-pyrazol-4-yl)phenoxy]-2-fluoro-N-1,3-thiazol-4-ylbenzenesulfonamide] | 
 | O=S(=O)(Nc1ncns1)c1cc(F)c(Oc2ccc(OC(F)(F)F)cc2-c2ccnnc2)cc1F [Example 897, 2,5-difluoro-4-[2-pyridazin-4-yl-4-(trifluoromethoxy)phenoxy]-N-1,2,4-thiadiazol-5-ylbenzenesulfonamide] | IC50 [2]: 5.8 nM
 | O=S(=O)(Nc1ncns1)c1cc(F)c(Oc2ccccc2-c2ccccc2)cc1F [Example 266, 4-(biphenyl-2-yloxy)-2,5-difluoro-N-1,2,4-thiadiazol-5-ylbenzenesulfonamide] | IC50 [3]: 100 nM
14 | N#Cc1cc(S(=O)(=O)Nc2nccs2)ccc1Oc1ccc(Cl)cc1-c1ccn[nH]1 [Example 709, 4-[4-chloro-2-(1H-pyrazol-5-yl)phenoxy]-3-cyano-N-1,3-thiazol-2-ylbenzenesulfonamide] | 
 | N#Cc1cc(S(=O)(=O)Nc2ncns2)ccc1Oc1ccccc1-c1ccc(F)c(F)c1 [Example 52, 3-cyano-4-[(3′,4′-difluorobiphenyl-2-yl)oxy]-N-1,2,4-thiadiazol-5-ylbenzenesulfonamide] | IC50 [3]: 360 nM
 | O=S(=O)(Nc1nccs1)c1ccc(Oc2ccc(F)cc2-c2ccnn2CC(F)(F)F)c(F)c1 [Example 225, 3-fluoro-4-(4-fluoro-2-(1-(2,2,2-trifluoroethyl)-1H-pyrazol-5-yl)phenoxy)-N-(thiazol-2-yl)benzenesulfonamide] | IC50 [3]: 430 nM

IC50 [1] [nM] | Compound | other results
 | O=S(=O)(Nc1nccs1)c1ccc(Oc2ccc(Cl)cc2-c2ccnn2-c2ccccc2)cc1F [Example 211, 4-(4-chloro-2-(1-phenyl-1H-pyrazol-5-yl)phenoxy)-2-fluoro-N-(thiazol-2-yl)benzenesulfonamide] | IC50 [3]: 110 nM
770 | N#Cc1cc(S(=O)(=O)Nc2nccs2)ccc1Oc1ccc(Cl)cc1-n1nccn1 [Example 321, 4-[4-chloro-2-(2H-1,2,3-triazol-2-yl)phenoxy]-3-cyano-N-1,3-thiazol-2-ylbenzenesulfonamide] | 
 | N#Cc1cc(S(=O)(=O)Nc2nccs2)ccc1Oc1ccccc1-c1cncnc1 [Example 985, 3-cyano-4-(2-pyrimidin-5-ylphenoxy)-N-1,3-thiazol-2-ylbenzenesulfonamide] | IC50 [2]: 2300 nM
 | N#Cc1cc(S(=O)(=O)Nc2ncns2)ccc1Oc1ccc(Cl)cc1-c1ccc(CC(=O)O)cc1 [Example 1001, (5′-chloro-2′-{2-cyano-4-[(1,2,4-thiadiazol-5-ylamino)sulfonyl]phenoxy}biphenyl-4-yl)acetic acid] | IC50 [2]: 820 nM
1300 | Cc1coc(-c2cc(Cl)ccc2Oc2ccc(S(=O)(=O)Nc3nccs3)cc2C#N)n1 [Example 318, 4-[4-chloro-2-(4-methyl-1,3-oxazol-2-yl)phenoxy]-3-cyano-N-1,3-thiazol-2-ylbenzenesulfonamide] | 
32 | Cn1nccc1-c1ccc(I)cc1Oc1ccc(S(=O)(=O)Nc2ncc(F)s2)cc1C#N [Example 780, 3-cyano-N-(5-fluoro-1,3-thiazol-2-yl)-4-[5-iodo-2-(1-methyl-1H-pyrazol-5-yl)phenoxy]benzenesulfonamide] | 
16 | O=S(=O)(Nc1ncns1)c1ccc(Oc2ccc(Cl)cc2C2CCNCC2)c(Cl)c1 [Example 477, 3-chloro-4-(4-chloro-2-piperidin-4-ylphenoxy)-N-1,2,4-thiadiazol-5-ylbenzenesulfonamide] | 
11 | O=S(=O)(Nc1ncns1)c1cc(F)c(Oc2ccc(F)cc2-c2cn[nH]c2)cc1F [Example 756, 2,5-difluoro-4-[4-fluoro-2-(1H-pyrazol-4-yl)phenoxy]-N-1,2,4-thiadiazol-5-ylbenzenesulfonamide] | 
 | Cc1cc(S(=O)(=O)Nc2nncs2)c(F)cc1Oc1ccc(OC(F)(F)F)cc1-c1ccnnc1 [Example 1037, 2-fluoro-5-methyl-4-[2-pyridazin-4-yl-4-(trifluoromethoxy)phenoxy]-N-1,3,4-thiadiazol-2-ylbenzenesulfonamide] | IC50 [2]: 12 nM
 | Cc1nn(C(C)(C)C)cc1-c1cc(Cl)ccc1Oc1cc(F)c(S(=O)(=O)Nc2nncs2)cc1Cl [Example 982, 4-[2-(1-tert-butyl-3-methyl-1H-pyrazol-4-yl)-4-chlorophenoxy]-5-chloro-2-fluoro-N-1,3,4-thiadiazol-2-ylbenzenesulfonamide] | IC50 [2]: >300 nM
34 | N#Cc1cc(S(=O)(=O)Nc2ncc(I)s2)ccc1Oc1ccc(Cl)cc1-c1cn[nH]c1 [Example 582, 4-[4-Chloro-2-(1H-pyrazol-4-yl)phenoxy]-3-cyano-N-(5-iodo-1,3-thiazol-2-yl)benzenesulfonamide] | 
17 | COCCn1nccc1-c1cc(Cl)ccc1Oc1ccc(S(=O)(=O)Nc2ncns2)cc1C#N [Example 562, 4-{4-chloro-2-[1-(2-methoxyethyl)-1H-pyrazol-5-yl]phenoxy}-3-cyano-N-1,2,4-thiadiazol-5-ylbenzenesulfonamide] | 
 | O=S(=O)(Nc1ncns1)c1ccc(Oc2ccccc2-c2ccccc2)c(C(F)(F)F)c1 [Example 205, 4-(biphenyl-2-yloxy)-N-1,2,4-thiadiazol-5-yl-3-(trifluoromethyl)benzenesulfonamide] | IC50 [3]: 330 nM
 | N#Cc1cc(S(=O)(=O)Nc2nncs2)ccc1Oc1ccccc1-c1ccccc1 [Example 104, 4-(biphenyl-2-yloxy)-3-cyano-N-1,3,4-thiadiazol-2-ylbenzenesulfonamide] | IC50 [3]: 2250 nM
250 | O=S(=O)(Nc1cscn1)c1cc(Cl)c(Oc2ccc(F)cc2-c2ccn[nH]2)cc1F [Example 658, 5-chloro-2-fluoro-4-[4-fluoro-2-(1H-pyrazol-5-yl)phenoxy]-N-1,3-thiazol-4-ylbenzenesulfonamide] | 
50 | O=S(=O)(Nc1nncs1)c1ccc(Oc2ccc(Cl)cc2-c2ccn[nH]2)c(Cl)c1 [Example 747, 3-chloro-4-[4-chloro-2-(1H-pyrazol-5-yl)phenoxy]-N-1,3,4-adiazol-2-ylbenzenesulfonamide] | 
 | Cc1ccc(-c2nc(N(C)C)ncc2Oc2ccc(S(=O)(=O)Nc3ncns3)cc2C#N)cc1 [Example 9, 3-cyano-4-{[2-(dimethylamino)-4-(4-methylphenyl)pyrimidin-5-yl]oxy}-N-1,2,4-thiadiazol-5-ylbenzenesulfonamide] | IC50 [3]: 3500 nM
 | O=S(=O)(Nc1ncns1)c1cc(F)c(Oc2ccc(Cl)cc2-c2ccnc(CN3CCC3)c2)cc1F [Example 838, 4-{2-[2-(azetidin-1-ylmethyl)pyridin-4-yl]-4-chlorophenoxy}-2,5-difluoro-N-1,2,4-thiadiazol-5-ylbenzenesulfonamide] | IC50 [2]: 1.8 nM
